Measured values as given in US12466801B2, “Cannabichromene derivatives and use thereof” (Remedy Processors LLC, priority 2023, dated 2025).

Tests used:
cancer cell lines = assay: National Cancer Institute (NCI) 60 cell cancer screen, growth inhibition; assay type: cell-based; conditions: multiple dose study (dose-response); leukemia, non-small cell, colon, CNS, melanoma, ovarian, renal, prostate, breast cancer cell lines (FIGS. 3-11)
Description: (§1) A multiple dose study (dose-response) was then performed using Compound 8 across multiple cancer cell lines. […] A multiple dose study (dose-response) was then performed in PC3 cells using Compound 9. […] (See FIG. 2) The data was generated according to the National Cancer Institute (NCI) 60 cell cancer screen.

[1] = system: prostate cancer PC3 cells; assay: NCI 60 cell cancer screen, multiple dose study (dose-response) in PC3 cells; assay type: cell-based; conditions: FIG. 2
Description: FIG. 2 provides data from a multiple dose study (dose-response) performed in prostate cancer PC3 cells.
as §1

[2] = target: dopamine transporter (DAT) (Homo sapiens, UniProt Q01959); assay: CNS receptor testing, affinity at dopamine transporter; assay type: binding; conditions: for affinity and selectivity for the dopamine transporter (DAT): result in words
Description: The compounds were tested for affinity at various central nervous system receptors.

Chain of dopamine transporter (DAT) (Q01959 whole entry, species assumed): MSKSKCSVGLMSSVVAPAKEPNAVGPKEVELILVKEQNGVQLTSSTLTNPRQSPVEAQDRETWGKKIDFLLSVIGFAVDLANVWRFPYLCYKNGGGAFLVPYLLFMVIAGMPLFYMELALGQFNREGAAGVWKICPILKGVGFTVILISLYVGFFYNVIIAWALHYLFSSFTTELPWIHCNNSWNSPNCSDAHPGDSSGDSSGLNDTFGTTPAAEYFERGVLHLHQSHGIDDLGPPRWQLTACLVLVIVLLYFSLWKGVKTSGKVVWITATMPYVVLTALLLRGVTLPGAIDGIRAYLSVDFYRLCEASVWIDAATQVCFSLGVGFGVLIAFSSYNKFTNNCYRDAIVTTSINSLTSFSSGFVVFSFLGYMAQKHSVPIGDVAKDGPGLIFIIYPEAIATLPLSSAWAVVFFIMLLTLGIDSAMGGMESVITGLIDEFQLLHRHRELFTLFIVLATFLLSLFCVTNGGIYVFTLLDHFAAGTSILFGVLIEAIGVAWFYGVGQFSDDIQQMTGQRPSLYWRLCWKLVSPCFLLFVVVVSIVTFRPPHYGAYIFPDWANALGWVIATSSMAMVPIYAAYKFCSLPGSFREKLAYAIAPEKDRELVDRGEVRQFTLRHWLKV

Row | Structure (SMILES) | growth inhibition across multiple cancer cell lines (cancer cell lines) | growth inhibition of PC3 cells [1] | Ki [2] | affinity and selectivity for the dopamine transporter (DAT) [2]
1 | CCCCCc1cc(NC(=O)C(Cl)Cl)c2c(c1)OC(C)(CCC=C(C)C)C=C2 (stereo not drawn) [Compound 8] | provided growth inhibition | – | – | –
2 | CCCCCc1cc(NC(=O)CC(F)(F)F)c2c(c1)OC(C)(CCC=C(C)C)C=C2 (stereo not drawn) [Compound 9] | – | inhibits the growth | – | –
3 | CCCCCc1cc(NC(=O)C(F)(F)Br)c2c(c1)OC(C)(CCC=C(C)C)C=C2 (stereo not drawn) [Compound 10] | – | – | 85 nM | good affinity and selectivity
4 | CCCCCc1cc(NC(=O)CCCC)c2c(c1)OC(C)(CCC=C(C)C)C=C2 (stereo not drawn) [Compound 12] | – | – | 107 nM | good affinity and selectivity
